Experiments:
Format in all cases: cell-based
[1] = system: Cortisol; test: Cortisol competitive ELISA on explant culture media; conditions: for Cortisol (ng/mL), Mean: released in BEM culture medium
Protocol: (§1) On day 0 (D0), D1, D4, D5 and D7, the product P was topically applied on the basis of 2 mg/cm^2 (± 2µL per explant) and spread using a small spatula. […] The culture medium was half renewed (1 ml per well) on D1, D4, D5 and D7.
(§2) On day 0 (D0), the 3 explants from the batch T0 were collected and cut into 2 parts: half was fixed in formalin buffered solution and half was frozen at -80°C. On D5 and D9, the 3 explants of each batch were collected and processed in the same way than on day 0; the fourth explants were kept frozen at -80°C. The culture media of all explants were collected on D1, D4, D5, D7 (1 ml per explant) and on day 9 (2 ml per explant) and stored at -20°C for cortisol dosage.
Cortisol competitive assay was performed with human Cortisol ELISA kit (Enzo life sciences, ref. 25-0358-ADI-901-071). According to provider's guidelines, the culture media were diluted at 1/200 and the Cortisol standards were incubated for 2 hours at room temperature with a monoclonal antibody specific to Cortisol in a sample or an alkaline phosphatase molecule which has Cortisol covalently attached to it. […] The intensity of the bound yellow color is inversely proportional to the concentration of Cortisol in either standards or samples. Absorbance at 405 nm was measured using the M200Pro Tecan microplate reader and Magellan7 software. Cortisol assay was performed on culture BEM media on day 5 (pool of D1, D4, D5 culture media) and day 9 (pool of D7 and D9 culture media). The concentration of cortisol was expressed in ng/ml.

[2] = system: Beta-endorphin; test: Beta-endorphin immunostaining of explant skin sections with image analysis; conditions: for Beta-endorphin in the epidermis (% surface), Average: image analysis
Protocol: as §1, §2
(§3) After fixation for 24 hours in buffered formalin solution, the samples were dehydrated and impregnated in paraffin using a Leica PEARL dehydration automat. The samples were then paraffin-embedded using a Leica EG 1160 embedding station. 5-µm-thick sections of formol fixed paraffin-embedded (FFPE) skin sections were realized using a Leica RM 2125 Minot-type microtome, and the sections were then mounted on Superfrost® Plus glass slides. The frozen samples were cut into 7-µm-thick sections using a Leica CM 3050 cryostat. Sections were then mounted on Superfrost® plus silanized glass slides. Microscopical observations were realized using a Leica DMLB, a BX43 or BX63 Olympus microscope. Pictures were digitized with an Olympus DP72 or DP74 camera and the cellSens dimension data storing software (Olympus).
The immunostaining was assessed by microscopical observation and image analysis.
The images analyses were performed on all the images of each batch, according to the following method using cellSens software. The process is illustrated in Figure 2. For each batch of explants, the percentage of the region of interest covered by the staining (stained surface percentage) is determined by image analysis according to the previously described process.
The stained surface percentage (Surf%) for each treatment was compared to the untreated condition => P vs T.

[3] = system: epidermis and dermis; test: Control of cell viability of skin explants (Masson's trichrome staining, Goldner variant); conditions: for Cell viability Dermis / Cell viability Epidermis: explants
Protocol: The explants were distributed into 3 batches as follows:
as §1, §2, §3
The observation of the cell viability of the epidermis and dermis was performed after staining of formalin-fixed paraffin- embedded (FFPE) skin sections according to Masson's trichrome, Goldner variant.

[4] = topical 2 mg/cm^2, day 5 (batch PJ5)
[5] = topical 2 mg/cm^2, day 9 (batch PJ9)

C=C(C)[C@@H]1CCC(C)=C[C@H]1c1c(O)cc(CCCCC)cc1O [Cannabidiol]
decrease of cortisol ([1]; D5, compared to the batch TJ5): 24% | decrease of cortisol ([1]; D9, compared to the batch TJ9): 18% | Cortisol (ng/mL), Mean ([1]; day 5 (pool of D1, D4, D5), batch PJ5): 246.5 ng/mL | Cortisol (ng/mL), Mean ([1]; day 9 (pool of D7 and D9), batch PJ9): 255.1 ng/mL | Effect of product application on beta-endorphin expression (microscopical observation of staining in the epidermis) ([2]; D5, compared to the batch TJ5): slight increase | increase of beta-endorphin expression ([2]; D5, compared to the batch TJ5, image analysis): 24% | Effect of product application on beta-endorphin expression (microscopical observation of staining in the epidermis) ([2]; D9, compared to the batch TJ9): slight increase | increase of beta-endorphin expression ([2]; D9, compared to the batch TJ9, image analysis): 30% | Beta-endorphin in the epidermis (% surface), Average ([2]; day 5 (batch PJ5)): 33.1 % surface | Beta-endorphin in the epidermis (% surface), Average ([2]; day 9 (batch PJ9)): 12.5 % surface | Effect of product application on cell viability ([3]; D5, compared to the batch TJ5): no modification | Effect of product application on cell viability ([3]; D9, compared to the batch TJ9): no modification | Cell viability Dermis [3, 4]: good | Cell viability Epidermis [3, 4]: good | Cell viability Dermis [3, 5]: good | Cell viability Epidermis [3, 5]: fairly good
